These molecules were tested against T1, SyHR (Synechocystis sp. PCC 7509, UniProt A0A9X9ZA75) (assay: absorption spectral shift titration, Hill fit).
T1 sequence (A0A9X9ZA75 1-234): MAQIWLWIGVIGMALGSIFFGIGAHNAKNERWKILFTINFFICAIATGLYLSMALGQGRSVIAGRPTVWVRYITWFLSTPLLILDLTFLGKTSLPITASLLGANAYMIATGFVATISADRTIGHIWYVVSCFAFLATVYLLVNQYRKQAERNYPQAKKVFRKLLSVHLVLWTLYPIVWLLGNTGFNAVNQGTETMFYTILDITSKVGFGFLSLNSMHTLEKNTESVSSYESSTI
Type: binding

SMILES | Kd
Cl [a, Cl^−] | 280 ± 50 µM
Br [b, Br^−] | 110 ± 20 µM
O=[N+]([O-])O [c, NO3^−] | 6150 ± 750 µM
I [d, I^−] | 210 ± 30 µM
